Where “and” joins values, the source holds several entries; their conditions need not be identical. Equal values may be shown once. Inconclusive results and toxic doses are left out.
Test system: CD2F1 mice, L1210 leukemia ip, survival T/C
Assay: NCI In Vivo Anticancer Drug Screen. Data for tumor model L1210 Leukemia (intraperitoneal) in CD2F1 (CDF1) mice
Conditions: higher = longer survival
Protocol: The antitumor activity of compounds was measured in mice bearing transplantable tumors. Survival or tumor size were measured and the results are expressed as the measurement made in the treated group (T) divided by the measurement made in the vehicle treated control group (C). The tumor model used in this assay is L1210 Leukemia (intraperitoneal) in CD2F1 (CDF1) mice

[1] = endpoint: mean survival time, dose: 100.0 mg/kg/injection, schedule: Q01DX001 (ip), vehicle: saline with Tween-80
[2] = endpoint: mean survival time, dose: 200.0 mg/kg/injection, schedule: Q01DX001 (ip), vehicle: saline with Tween-80
[3] = endpoint: mean survival time, dose: 400.0 mg/kg/injection, schedule: Q01DX001 (ip), vehicle: saline with Tween-80
[4] = endpoint: mean survival time, dose: 100.0 mg/kg/injection, schedule: Q04DX003 (ip), vehicle: saline with Tween-80
[5] = endpoint: mean survival time, dose: 200.0 mg/kg/injection, schedule: Q04DX003 (ip), vehicle: saline with Tween-80
[6] = endpoint: mean survival time, dose: 400.0 mg/kg/injection, schedule: Q04DX003 (ip), vehicle: saline with Tween-80
[7] = endpoint: mean survival time, dose: 100.0 mg/kg/injection, schedule: Q04DX002 (ip), vehicle: saline with Tween-80
[8] = endpoint: mean survival time, dose: 200.0 mg/kg/injection, schedule: Q04DX002 (ip), vehicle: saline with Tween-80
[9] = endpoint: mean survival time, dose: 400.0 mg/kg/injection, schedule: Q04DX002 (ip), vehicle: saline with Tween-80
[10] = endpoint: mean survival time, dose: 25.0 mg/kg/injection, schedule: Q01DX009 (ip), vehicle: saline
[11] = endpoint: mean survival time, dose: 100.0 mg/kg/injection, schedule: Q04DX003 (ip), vehicle: saline
[12] = endpoint: mean survival time, dose: 200.0 mg/kg/injection, schedule: Q04DX003 (ip), vehicle: saline
[13] = endpoint: mean survival time, dose: 400.0 mg/kg/injection, schedule: Q04DX003 (ip), vehicle: saline
[14] = endpoint: mean survival time, dose: 100.0 mg/kg/injection, schedule: Q01DX001 (ip), vehicle: Klucel (hydroxypropylcellulose) (HPC)
[15] = endpoint: mean survival time, dose: 200.0 mg/kg/injection, schedule: Q01DX001 (ip), vehicle: Klucel (hydroxypropylcellulose) (HPC)
[16] = endpoint: mean survival time, dose: 50.0 mg/kg/injection, schedule: Q01DX009 (ip), vehicle: Klucel (hydroxypropylcellulose) (HPC)
[17] = endpoint: mean survival time, dose: 100.0 mg/kg/injection, schedule: Q01DX009 (ip), vehicle: saline
[18] = endpoint: mean survival time, dose: 200.0 mg/kg/injection, schedule: Q01DX009 (ip), vehicle: saline
[19] = endpoint: mean survival time, dose: 50.0 mg/kg/injection, schedule: Q01DX009 (ip), vehicle: saline

SMILES: CCCCCCCCCCCCCCCC[N+](C)(C)C
- T/C (endpoint: mean survival time, dose: 1.25 mg/kg/injection, schedule: Q01DX009 (ip), vehicle: saline with Tween-80): 96 % of control
- T/C (endpoint: mean survival time, dose: 2.5 mg/kg/injection, schedule: Q01DX009 (ip), vehicle: saline with Tween-80): 98 % of control
- T/C (endpoint: mean survival time, dose: 5.0 mg/kg/injection, schedule: Q01DX009 (ip), vehicle: saline with Tween-80): 94 % of control and 97 % of control
- T/C (endpoint: mean survival time, dose: 5.0 mg/kg/injection, schedule: Q04DX003 (ip), vehicle: saline): 96 % of control
- T/C (endpoint: mean survival time, dose: 10.0 mg/kg/injection, schedule: Q04DX003 (ip), vehicle: saline): 98 % of control
- T/C (endpoint: mean survival time, dose: 20.0 mg/kg/injection, schedule: Q04DX003 (ip), vehicle: saline): 95 % of control

SMILES: NC(=O)c1csc(NC2OC(CO)C(O)C(O)C2O)n1 (stereo not given)
- T/C (endpoint: mean survival time, dose: 12.5 mg/kg/injection, schedule: Q01DX005 (ip), vehicle: water): 98 % of control
- T/C (endpoint: mean survival time, dose: 25.0 mg/kg/injection, schedule: Q01DX005 (ip), vehicle: water): 96 % of control
- T/C (endpoint: mean survival time, dose: 50.0 mg/kg/injection, schedule: Q01DX005 (ip), vehicle: water): 101 % of control
- T/C (endpoint: mean survival time, dose: 100.0 mg/kg/injection, schedule: Q01DX005 (ip), vehicle: water): 96 % of control
- T/C (endpoint: mean survival time, dose: 200.0 mg/kg/injection, schedule: Q01DX005 (ip), vehicle: water): 98 % of control

SMILES: O=CC12C=CC(CC1)C1C(=O)OC(=O)C12 (stereo not given)
- T/C [1]: 104 % of control
- T/C [2]: 103 % of control
- T/C [3]: 101 % of control

SMILES: Nc1cccc2scnc12 (tested in a mixture with another compound)
- T/C [4]: 104 % of control
- T/C [5]: 98 % of control
- T/C [6]: 95 % of control

SMILES: O=[N+]([O-])c1ccc2ccccc2c1I
- T/C (endpoint: mean survival time, dose: 100.0 mg/kg/injection, schedule: Q01DX009 (ip), vehicle: saline with Tween-80): 92 % of control
- T/C [4]: 87 % of control
- T/C (endpoint: mean survival time, dose: 200.0 mg/kg/injection, schedule: Q01DX009 (ip), vehicle: saline with Tween-80): 98 % of control
- T/C [5]: 93 % of control
- T/C (endpoint: mean survival time, dose: 400.0 mg/kg/injection, schedule: Q01DX009 (ip), vehicle: saline with Tween-80): 90 % of control
- T/C [6]: 92 % of control

SMILES: C/C(CCc1cnc2ccccc2c1)=N/NC(N)=O
- T/C [7]: 96 % of control
- T/C [8]: 88 % of control
- T/C [9]: 103 % of control

SMILES: O=C1OC2CC3CCC2C13 (stereo not given)
- T/C (endpoint: mean survival time, dose: 6.25 mg/kg/injection, schedule: Q01DX009 (ip), vehicle: saline): 101 % of control
- T/C (endpoint: mean survival time, dose: 12.5 mg/kg/injection, schedule: Q01DX009 (ip), vehicle: saline): 101 % of control
- T/C [10]: 95 % of control

SMILES: CC(C)(C)OCC(N)C(=O)OC(C)(C)C (stereo not given)
- T/C [11]: 93 % of control
- T/C [12]: 103 % of control
- T/C [13]: 96 % of control

SMILES: CCOC(=O)Nc1cc(N)c2[nH]cnc2n1
- T/C (endpoint: mean survival time, dose: 100.0 mg/kg/injection, schedule: Q01DX001 (ip), vehicle: carboxymethylcellulose (CMC)): 96 % of control

SMILES: COC(=O)C(C(=O)OC(C)C)C(=O)OC(C)C
- T/C (endpoint: mean survival time, dose: 50.0 mg/kg/injection, schedule: Q01DX001 (ip), vehicle: Klucel (hydroxypropylcellulose) (HPC)): 105 % of control
- T/C [14]: 96 % of control
- T/C [15]: 99 % of control

SMILES: NC(=O)c1[nH]cnc1NN=NCCF
- T/C (endpoint: mean survival time, dose: 25.0 mg/kg/injection, schedule: Q01DX001 (ip), vehicle: Klucel (hydroxypropylcellulose) (HPC)): 320 % of control

SMILES: COC1OC(COC(c2ccccc2)(c2ccccc2)c2ccccc2)C(OC)C(OC)C1NC(C)=O (stereo not given)
- T/C [14]: 91 % of control
- T/C [15]: 96 % of control
- T/C (endpoint: mean survival time, dose: 400.0 mg/kg/injection, schedule: Q01DX001 (ip), vehicle: Klucel (hydroxypropylcellulose) (HPC)): 96 % of control

SMILES: C=CCc1cc(CNCC(O)c2ccccc2)c(O)c(OC)c1 (stereo not given)
- T/C (endpoint: mean survival time, dose: 25.0 mg/kg/injection, schedule: Q01DX009 (ip), vehicle: Klucel (hydroxypropylcellulose) (HPC)): 89 % of control
- T/C [16]: 112 % of control

SMILES: CCNC(=S)N(Cc1ccccc1)Cc1ccccc1
- T/C (endpoint: mean survival time, dose: 50.0 mg/kg/injection, schedule: Q04DX003 (ip), vehicle: saline with Tween-80): 103 % of control
- T/C [4]: 89 % of control and 98 % of control
- T/C [5]: 100 % of control
- T/C [6]: 87 % of control

SMILES: c1ccc(C2NC2c2ccccc2)cc1 (stereo not given)
- T/C (endpoint: median survival time, dose: 50.0 mg/kg/injection, schedule: Q04DX002 (ip), vehicle: saline with Tween-80): 100 % of control
- T/C (endpoint: median survival time, dose: 100.0 mg/kg/injection, schedule: Q04DX002 (ip), vehicle: saline with Tween-80): 100 % of control
- T/C (endpoint: median survival time, dose: 200.0 mg/kg/injection, schedule: Q04DX002 (ip), vehicle: saline with Tween-80): 100 % of control
- T/C (endpoint: median survival time, dose: 400.0 mg/kg/injection, schedule: Q04DX002 (ip), vehicle: saline with Tween-80): 100 % of control

SMILES: Cc1cccc(CCl)n1
- T/C [17]: 98 % of control
- T/C [11]: 101 % of control
- T/C [18]: 90 % of control
- T/C [12]: 95 % of control
- T/C [13]: 87 % of control

SMILES: COc1ccc(NC(C)=O)c(O)c1OC
- T/C [1]: 95 % of control
- T/C [7]: 103 % of control
- T/C [2]: 92 % of control
- T/C [8]: 106 % of control
- T/C [3]: 95 % of control
- T/C [9]: 98 % of control

SMILES: Cc1ccc(-n2c(N)cc(=O)[nH]c2=S)nc1
- T/C [4]: 95 % of control
- T/C [5]: 100 % of control
- T/C [6]: 95 % of control

SMILES: C=CCN(CC=C)P(=O)(N(CC=C)CC=C)N1CC1
- T/C (endpoint: mean survival time, dose: 11.0 mg/kg/injection, schedule: Q01DX015 (ip), vehicle: saline): 151 % of control
- T/C (endpoint: mean survival time, dose: 17.0 mg/kg/injection, schedule: Q01DX015 (ip), vehicle: saline): 114 % of control

SMILES: C#CCC(O)CC (stereo not given)
- T/C [19]: 103 % of control
- T/C [17]: 107 % of control
- T/C [18]: 103 % of control

SMILES: O=C1c2ccccc2C(=O)N1c1ccccc1-c1ccccc1
- T/C [4]: 100 % of control
- T/C [5]: 92 % of control
- T/C [6]: 100 % of control

SMILES: O=C(C[n+]1ccccc1)c1ccccc1
- T/C (endpoint: mean survival time, dose: 25.0 mg/kg/injection, schedule: Q01DX001 (ip), vehicle: saline): 102 % of control
- T/C (endpoint: mean survival time, dose: 50.0 mg/kg/injection, schedule: Q01DX001 (ip), vehicle: saline): 106 % of control
- T/C (endpoint: mean survival time, dose: 100.0 mg/kg/injection, schedule: Q01DX001 (ip), vehicle: saline): 96 % of control and 97 % of control
- T/C [7]: 96 % of control

SMILES: Cc1ccc([N+](=O)[O-])cc1NC(=O)Oc1ccc2c(C)cc(=O)oc2c1
- T/C (endpoint: mean survival time, dose: 100.0 mg/kg/injection, schedule: Q04DX002 (ip), vehicle: Klucel (hydroxypropylcellulose) (HPC)): 92 % of control
- T/C (endpoint: mean survival time, dose: 200.0 mg/kg/injection, schedule: Q04DX002 (ip), vehicle: Klucel (hydroxypropylcellulose) (HPC)): 100 % of control
- T/C (endpoint: mean survival time, dose: 400.0 mg/kg/injection, schedule: Q04DX002 (ip), vehicle: Klucel (hydroxypropylcellulose) (HPC)): 87 % of control

SMILES: c1cc[n+](Cc2nc3ccccc3[nH]2)cc1
- T/C [10]: 97 % of control and 100 % of control
- T/C (endpoint: mean survival time, dose: 25.0 mg/kg/injection, schedule: Q04DX003 (ip), vehicle: saline): 103 % of control and 100 % of control
- T/C [19]: 100 % of control
- T/C (endpoint: mean survival time, dose: 50.0 mg/kg/injection, schedule: Q04DX003 (ip), vehicle: saline): 100 % of control and 106 % of control
- T/C [17]: 101 % of control and 97 % of control
- T/C [11]: 97 % of control and 103 % of control

SMILES: COCc1ccc(C(=O)O)cc1
- T/C [1]: 105 % of control
- T/C [2]: 96 % of control
- T/C [3]: 97 % of control

SMILES: CCCc1nc2ccccc2c(=O)n1/N=C/c1ccsc1
- T/C (endpoint: mean survival time, dose: 100.0 mg/kg/injection, schedule: Q01DX009 (ip), vehicle: saline sonified): 100 % of control
- T/C (endpoint: mean survival time, dose: 200.0 mg/kg/injection, schedule: Q01DX009 (ip), vehicle: saline sonified): 102 % of control
- T/C (endpoint: mean survival time, dose: 400.0 mg/kg/injection, schedule: Q01DX009 (ip), vehicle: saline sonified): 93 % of control

SMILES: CSCCC(NC(=O)COc1ccc(Cl)cc1Cl)C(=O)O (stereo not given)
- T/C [16]: 100 % of control
- T/C (endpoint: mean survival time, dose: 100.0 mg/kg/injection, schedule: Q01DX009 (ip), vehicle: Klucel (hydroxypropylcellulose) (HPC)): 89 % of control
- T/C (endpoint: mean survival time, dose: 200.0 mg/kg/injection, schedule: Q01DX009 (ip), vehicle: Klucel (hydroxypropylcellulose) (HPC)): 91 % of control

SMILES: CNCCN1CCC(Cc2ccccc2)CC1
- T/C [19]: 102 % of control
- T/C [17]: 100 % of control
- T/C [18]: 106 % of control

SMILES: C1c2nnnn2Cc2nnnn21
- T/C (endpoint: mean survival time, dose: 12.5 mg/kg/injection, schedule: Q04DX002 (ip), vehicle: saline): 96 % of control
- T/C (endpoint: mean survival time, dose: 25.0 mg/kg/injection, schedule: Q04DX002 (ip), vehicle: saline): 104 % of control
- T/C (endpoint: mean survival time, dose: 50.0 mg/kg/injection, schedule: Q04DX002 (ip), vehicle: saline): 93 % of control
